The text below walks through data of patent US10138225B2 (Achillion Pharmaceuticals, Inc., priority 2015, dated 2018).

The target in the test is T1, Human Factor D (Homo sapiens, UniProt P00746).
T1 construct: purified from human serum; purchased Complement Technology, Inc; host or cells: human serum (natural protein, not recombinant)
T1 sequence (P00746 26-253): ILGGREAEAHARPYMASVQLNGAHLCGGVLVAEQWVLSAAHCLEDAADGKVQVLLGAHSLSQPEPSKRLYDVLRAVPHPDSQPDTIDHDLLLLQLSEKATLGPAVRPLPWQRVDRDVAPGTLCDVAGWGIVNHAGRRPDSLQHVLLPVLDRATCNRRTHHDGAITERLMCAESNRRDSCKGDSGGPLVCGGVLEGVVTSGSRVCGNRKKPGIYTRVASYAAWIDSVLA
Kind of test: Human Factor D Assay. The note with it: Table 1; Factor D 80 nM, substrate Z-L-Lys-SBzl; read-out: IC50. The class given is biochemical. On the procedure: Human Factor D (purified from human serum, Complement Technology, Inc.) at 80 nM final concentration is incubated with test compound at various concentrations for 5 minutes at room temperature in 50 mM Tris, 1M NaCl, pH 7.5. A synthetic substrate Z-L-Lys-SBzl and DTNB (Ellman's reagent) are added to final concentrations of 100 μM each. Absorbance at 405 nm (A405) is recorded at 30 second intervals for 30 minutes using a microplate spectrophotometer. IC50 values are calculated by nonlinear regression of complement Factor D reaction rates as a function of test compound concentration.
By IC50 is commonly meant the point on the concentration scale where inhibition reaches its midpoint. As for `CC(=O)c1cn(CC(=O)N2C[C@H](F)C[C@H]2C(=O)NCc2cccc(Cl)c2F)c2ccc(NC(=O)NC3CC3)cc12` [Compound 1, (2S,4R)-1-(2-(3-acetyl-5-(3-cyclopropylureido)-1H-indol-1-yl)acetyl)-N-(3-chloro-2-fluorobenzyl)-4-fluoropyrrolidine-2-carboxamide], the IC50 is less than 1 µM. The result for `CC(=O)c1cn(CC(=O)N2C[C@H](F)C[C@H]2C(=O)NCc2cccc(Cl)c2F)c2ccc(NC(=O)NCc3nn[nH]n3)cc12` [Compound 2, (2S,4R)-1-(2-(5-(3-((2H-tetrazol-5-yl)methyl)ureido)-3-acetyl-1H-indol-1-yl)acetyl)-N-(3-chloro-2-fluorobenzyl)-4-fluoropyrrolidine-2-carboxamide] reads less than 1 µM; that for `CC(=O)c1cn(CC(=O)N2[C@@H]3C[C@@H]3C[C@H]2C(=O)NCc2cccc(Cl)c2F)c2ccc(NC(=O)NC3CC3)cc12` [Compound 3, (1R,3S,5R)-2-(2-(3-acetyl-5-(3-cyclopropylureido)-1H-indol-1-yl)acetyl)-N-(3-chloro-2-fluorobenzyl)-2-azabicyclo[3.1.0] hexane-3-carboxamide], less than 1 µM; that for `CC(=O)c1cn(CC(=O)N2C[C@H](F)C[C@H]2C(=O)NCc2cccc(Cl)c2F)c2ccc(NC(=O)NC3(C)CC3)cc12` [Compound 4, (2S,4R)-1-(2-(3-acetyl-5-(3-(1-methylcyclopropyl)ureido)-1H-indol-1-yl)acetyl)-N-(3-chloro-2-fluorobenzyl)-4-fluoropyrrolidine-2-carboxamide], less than 1 µM. Turning to `CC(=O)c1cn(CC(=O)N2[C@@H]3C[C@@H]3C[C@H]2C(=O)N[C@H](C)c2cccc(Cl)c2F)c2ccc(NC(=O)NC3CC3)cc12` [Compound 5, (1R,3S,5R)-2-(2-(3-acetyl-5-(3-cyclopropylureido)-1H-indol-1-yl)acetyl)-N-((R)-1-(3-chloro-2-fluorophenyl)ethyl)-2-azabicyclo[3.1.0] hexane-3-carboxamide], the IC50 was less than 1 µM.

In the case of `CC(=O)c1cn(CC(=O)N2C[C@H](F)C[C@H]2C(=O)NCc2cccc(Cl)c2F)c2ccc(NC(=O)NC(C)C)cc12` [Compound 6, (2S,4R)-1-(2-(3-acetyl-5-(3-isopropylureido)-1H-indol-1-yl)acetyl)-N-(3-chloro-2-fluorobenzyl)-4-fluoropyrrolidine-2-carboxamide], the IC50 is less than 1 µM. The result for `CC(=O)c1cn(CC(=O)N2C[C@H](F)C[C@H]2C(=O)NCc2cccc(Cl)c2F)c2ccc(NC(=O)NCc3ccon3)cc12` [Compound 7, (2S,4R)-1-(2-(3-acetyl-5-(3-(isoxazol-3-ylmethyl)ureido)-1H-indol-1-yl)acetyl)-N-(3-chloro-2-fluorobenzyl)-4-fluoropyrrolidine-2-carboxamide] reads less than 1 µM; that for `CC(=O)c1cn(CC(=O)N2C[C@H](F)C[C@H]2C(=O)NCc2cccc(Cl)c2F)c2ccc(NC(=O)NCc3ncccn3)cc12` [Compound 8, (2S,4R)-1-(2-(3-acetyl-5-(3-(pyrimidin-2-ylmethyl)ureido)-1H-indol-1-yl)acetyl)-N-(3-chloro-2-fluorobenzyl)-4-fluoropyrrolidine-2-carboxamide], less than 1 µM. To `CC(=O)c1cn(CC(=O)N2C[C@H](F)C[C@H]2C(=O)NCc2cccc(Cl)c2F)c2ccc(NC(=O)N3CCCC3)cc12` [Compound 9, N-(3-acetyl-1-(2-((2S,4R)-2-(3-chloro-2-fluorobenzylcarbamoyl)-4-fluloropyrrolidin-1-yl)-2-oxoethyl)-1H-indol-5-yl)pyrrolidine-1-carboxamide] belongs less than 1 µM; to `CC(=O)c1cn(CC(=O)N2C[C@H](F)C[C@H]2C(=O)Nc2cccc(OC(F)(F)F)c2F)c2ccc(NC(=O)NC3CC3)cc12` [Compound 10, (2S,4R)-1-(2-(3-acetyl-5-(3-cyclopropylureido)-1H-indol-1-yl)acetyl)-4-fluoro-N-(2-fluoro-3-(trifluoromethoxy)phenyl)pyrrolidine-2-carboxamide], less than 1 µM; to `CC(=O)c1cn(CC(=O)N2[C@@H]3C[C@@H]3C[C@H]2C(=O)Nc2cccc(OC(F)(F)F)c2F)c2ccc(NC(=O)NC3CC3)cc12` [Compound 11, (1R,3S,5R)-2-(2-(3-acetyl-5-(3-cyclopropylureido)-1H-indol-1-yl)acetyl)-N-(2-fluoro-3-(trifluoromethoxy)phenyl)-2-azabicyclo[3.1.0] hexane-3-carboxamide], less than 1 µM. To `CC(=O)c1cn(CC(=O)N2[C@@H]3C[C@@H]3C[C@H]2C(=O)NCc2cccc(Cl)c2F)c2ccc(NC(=O)N3CCCC3)cc12` [Compound 12, (1R,3S,5R)-2-(2-(3-acetyl-5-(pyrrolidine-1-carboxamido)-1H-indol-1-yl)acetyl)-N-(3-chloro-2-fluorobenzyl)-2-azabicyclo[3.1.0] hexane-3-carboxamide] belongs less than 1 µM; to `CC(=O)c1cn(CC(=O)N2C[C@H](F)C[C@H]2C(=O)NCc2cccc(Cl)c2F)c2ccc(NC(=O)N3CCC(F)(F)C3)cc12` [Compound 13, N-(3-acetyl-1-(2-((2S,4R)-2-(3-chloro-2-fluorobenzylcarbamoyl)-4-fluoropyrrolidin-1-yl)-2-oxoethyl)-1H-indol-5-yl)-3,3-difluoropyrrolidine-1-carboxamide], less than 1 µM. As for `CC(=O)c1cn(CC(=O)N2C[C@H](F)C[C@H]2C(=O)NCc2cccc(Cl)c2F)c2ccc(NC(=O)OC3CC3)cc12` [Compound 14, cyclopropyl 3-acetyl-1-(2-((2S,4R)-2-(3-chloro-2-fluorobenzylcarbamoyl)-4-fluoropyrrolidin-1-yl)-2-oxoethyl)-1H-indol-5-ylcarbamate], the IC50 was less than 1 µM. On to `CC(=O)c1cn(CC(=O)N2C[C@H](F)C[C@H]2C(=O)NCc2cccc(Cl)c2F)c2ccc(NC(=O)OCC3CC3)cc12` [Compound 15, cyclopropylmethyl 3-acetyl-1-(2-((2S,4R)-2-(3-chloro-2-fluorobenzylcarbamoyl)-4-fluoropyrrolidin-1-yl)-2-oxoethyl)-1H-indol-5-ylcarbamate], for which the IC50 was less than 1 µM.

Regarding `CC(=O)c1cn(CC(=O)N2C[C@H](F)C[C@H]2C(=O)NCc2cccc(Cl)c2F)c2ccc(NC(=O)N3CCCC(F)(F)C3)cc12` [Compound 16, N-(3-acetyl-1-(2-((2S,4R)-2-(3-chloro-2-fluorobenzylcarbamoyl)-4-fluoropyrrolidin-1-yl)-2-oxoethyl)-1H-indol-5-yl)-3,3-difluoropiperidine-1-carboxamide], the IC50 was less than 1 µM. As to `CC(=O)c1cn(CC(=O)N2C[C@H](F)C[C@H]2C(=O)Nc2cccc(OC(F)(F)F)c2F)c2ccc(NC(=O)N3CCCC(F)(F)C3)cc12` [Compound 17, N-(3-acetyl-1-(2-((2S,4R)-4-fluoro-2-(2-fluoro-3-(trifluoromethoxy)phenylcarbamoyl)pyrrolidin-1-yl)-2-oxoethyl)-1H-indol-5-yl)-3,3-difluoropiperidine-1-carboxamide], the IC50 is less than 1 µM.

On to `CC(=O)c1cn(CC(=O)N2C[C@H](F)C[C@H]2C(=O)Nc2cccc(-c3ccccc3Cl)c2F)c2ccc(NC(=O)N3CCCC(F)(F)C3)cc12` [Compound 18, N-(3-acetyl-1-(2-((2S,4R)-2-(2′-chloro-2-fluorobiphenyl-3-ylcarbamoyl)-4-fluoropyrrolidin-1-yl)-2-oxoethyl)-1H-indol-5-yl)-3,3-difluoropiperidine-1-carboxamide], for which the IC50 is less than 1 µM. Consider `CC(=O)c1cn(CC(=O)N2C[C@H](F)C[C@H]2C(=O)NCc2cccc(Cl)c2F)c2ccc(NC(=O)Nc3ccon3)cc12` [Compound 19, (2S,4R)-1-(2-(3-acetyl-5-(3-isoxazol-3-ylureido)-1H-indol-1-yl)acetyl)-N-(3-chloro-2-fluorobenzyl)-4-fluoropyrrolidine-2-carboxamide], for which the IC50 is less than 1 µM. On to `CC(=O)c1cn(CC(=O)N2C[C@H](F)C[C@H]2C(=O)Nc2cccc(C(F)(F)F)n2)c2ccc(NC(=O)N3CCCC(F)(F)C3)cc12` [Compound 20, N-(3-acetyl-1-(2-((2S,4R)-4-fluoro-2-(6-(trifluoromethyl)pyridin-2-ylcarbamoyl)pyrrolidin-1-yl)-2-oxoethyl)-1H-indol-5-yl)-3,3-difluoropiperidine-1-carboxamide], for which the IC50 was less than 1 µM. As for `CC(=O)c1cn(CC(=O)N2C[C@H](F)C[C@H]2C(=O)NCc2cccc(Cl)c2F)c2ccc(NC(=O)NCC(F)(F)F)cc12` [Compound 21, (2S,4R)-1-(2-(3-acetyl-5-(3-(2,2,2-trifluoroethyl)ureido)-1H-indol-1-yl)acetyl)-N-(3-chloro-2-fluorobenzyl)-4-fluoropyrrolidine-2-carboxamide], the half-maximal inhibitory concentration (IC50) was less than 1 µM. As to `CC(=O)c1cn(CC(=O)N2C[C@H](F)C[C@H]2C(=O)NCc2cccc(Cl)c2F)c2ccc(NC(=O)N3Cc4cncnc4C3)cc12` [Compound 22, N-(3-acetyl-1-(2-((2S,4R)-2-(3-chloro-2-fluorobenzylcarbamoyl)-4-fluoropyrrolidin-1-yl)-2-oxoethyl)-1H-indol-5-yl)-5H-pyrrolo[3,4-d]pyrimidine-6(7H)-carboxamide], the half-maximal inhibitory concentration (IC50) was less than 1 µM. The result for `CC(=O)c1cn(CC(=O)N2C[C@H](F)C[C@H]2C(=O)NCc2cccc(Cl)c2F)c2ccc(NC(=O)Nc3cncnc3)cc12` [Compound 23, (2S,4R)-1-(2-(3-acetyl-5-(3-pyrimidin-5-ylureido)-1H-indol-1-yl)acetyl)-N-(3-chloro-2-fluorobenzyl)-4-fluoropyrrolidine-2-carboxamide] reads less than 1 µM; that for `NC(=O)c1nn(CC(=O)N2C[C@H](F)C[C@H]2C(=O)Nc2cccc(-c3ccccc3Cl)c2F)c2ccc(NC(=O)N3CCCC(F)(F)C3)cc12` [Compound 24, 1-(2-((2S,4R)-2-(2′-chloro-2-fluorobiphenyl-3-ylcarbamoyl)-4-fluoropyrrolidin-1-yl)-2-oxoethyl)-5-(3,3-difluoropiperidine-1-carboxamido)-1H-indazole-3-carboxamide], less than 1 µM.
